Measurements published in the supplement of paper PMC11061612.

Key:
Test in all cases: combination Emax (second highest fraction inhibited in the dose matrix, 72 h); higher = more inhibition; extreme values may be limits of the assay
A498 (Kidney Carcinoma) = tested on: A498 (Kidney Carcinoma)
Outline: (§1)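 After 24 hours at 37°C and 5% CO2 in 1536-well plates, cells in DMEM/F12 or RPMI plus 10% FBS received two-drug dose matrices for 72 hours. Viability came from CellTiter-Glo 2.0 luminescence and was scaled as inhibition, anchored at 0 by vehicle wells and at 1 by blank wells. Combination Emax is taken as the second-highest inhibition in the matrix, and Bliss excess as the observed combination effect less EA + EB − EA·EB, with EA and EB the single-agent effects.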

ARH-77 (Non-Cancerous) = tested on: ARH-77 (Non-Cancerous)
Outline: as §1

[1] = tested on: BICR22 (Oral Cavity Carcinoma)
Outline: as §1

CAS-1 (Glioblastoma) = tested on: CAS-1 (Glioblastoma)
Outline: as §1

[2] = tested on: COLO-320-HSR (Colorectal Carcinoma)
Outline: as §1

[3] = tested on: COR-L311 (Small Cell Lung Carcinoma)
Outline: as §1

[4] = tested on: ECC10 (Gastric Carcinoma)
Outline: as §1

Hs-445 (Non-Cancerous) = tested on: Hs-445 (Non-Cancerous)
Outline: as §1

IGR-37 (Melanoma) = tested on: IGR-37 (Melanoma)
Outline: as §1

LN-405 (Glioblastoma) = tested on: LN-405 (Glioblastoma)
Outline: as §1

[5] = tested on: NCI-H1666 (Lung Adenocarcinoma)
Outline: as §1

[6] = tested on: NCI-H1693 (Lung Adenocarcinoma)
Outline: as §1

[7] = tested on: NCI-H2141 (Small Cell Lung Carcinoma)
Outline: as §1

NY (Osteosarcoma) = tested on: NY (Osteosarcoma)
Outline: as §1

[8] = tested on: OS-RC-2 (Kidney Carcinoma)
Outline: as §1

[9] = tested on: PANC-10-05 (Pancreatic Carcinoma)
Outline: as §1

[10] = tested on: SISO (Cervical Carcinoma)
Outline: as §1

[11] = tested on: SK-MES-1 (Squamous Cell Lung Carcinoma)
Outline: as §1

[12] = tested on: SK-MG-1 (Low Grade Glioma)
Outline: as §1

U-2-OS (Osteosarcoma) = tested on: U-2-OS (Osteosarcoma)
Outline: as §1

Row | Compound | combination Emax (A498 (Kidney Carcinoma)) | combination Emax (ARH-77 (Non-Cancerous)) | combination Emax [1] | combination Emax (CAS-1 (Glioblastoma)) | combination Emax [2] | combination Emax [3] | combination Emax [4] | combination Emax (Hs-445 (Non-Cancerous)) | combination Emax (IGR-37 (Melanoma)) | combination Emax (LN-405 (Glioblastoma)) | combination Emax [5] | combination Emax [6] | combination Emax [7] | combination Emax (NY (Osteosarcoma)) | combination Emax [8] | combination Emax [9] | combination Emax [10] | combination Emax [11] | combination Emax [12] | combination Emax (U-2-OS (Osteosarcoma))
1 | CN(C)CCCOc1ccc(-c2ccc3ncc4c(c3c2)n(C2CCOCC2)c(=O)n4C)cn1 [AZD0156] + C=CCn1c(=O)c2cnc(Nc3ccc(N4CCN(C)CC4)cc3)nc2n1-c1cccc(C(C)(C)O)n1 [AZD1775] (first compound max 1 µM, partner max 1 µM) | 0.544 | 0.944 | 0.516 | 0.464 | 0.719 | 0.56 | 0.783 | 0.926 | 0.706 | 0.134 | 0.314 | 0.179 | 0.558 | 0.555 | 0.326 | 0.361 | 0.566 | 0.555 | 0.525 | 0.734
2 | CN(C)CCCOc1ccc(-c2ccc3ncc4c(c3c2)n(C2CCOCC2)c(=O)n4C)cn1 [AZD0156] + CCN(CCO)CCCOc1ccc2c(Nc3cc(CC(=O)Nc4cccc(F)c4)[nH]n3)ncnc2c1 [AZD2811] (first compound max 1 µM, 7x7, partner max 1 µM) | 0.172 | 0.492 | 0.375 | 0.263 | 0 | 0.815 | 0.856 | 0.325 | 0.0663 | 0.0969 | 0.211 | 0.142 | 0.289 | 0.0423 | 0.11 | 0.218 | 0.172 | 0.204 | 0.388 | 0.152
3 | CN(C)CCCOc1ccc(-c2ccc3ncc4c(c3c2)n(C2CCOCC2)c(=O)n4C)cn1 [AZD0156] + C[C@@H]1COCCN1C2=NC(=NC(=C2)C3(CC3)[S@](=N)(=O)C)C4=C5C=CNC5=NC=C4 [AZD6738] (first compound max 1 µM, 7x7, partner max 10 µM) | 0.703 | 0.975 | 0.724 | 0.582 | 0.652 | 0.408 | 0.332 | 0.868 | 0.781 | 0.376 | 0.331 | 0.192 | 0.462 | 0.555 | 0.425 | 0.41 | 0.588 | 0.73 | 0.565 | 0.856
4 | CN(C)CCCOc1ccc(-c2ccc3ncc4c(c3c2)n(C2CCOCC2)c(=O)n4C)cn1 [AZD0156] + O=C(c1cc(Cc2n[nH]c(=O)c3ccccc23)ccc1F)N1CCN(C(=O)C2CC2)CC1 [Olaparib] (first compound max 3 µM, partner max 3 µM) | 0.316 | 0.63 | 0.135 | 0.449 | 0.301 | 0.393 | 0.299 | 0.174 | 0.194 | 0.182 | 0.269 | 0.248 | 0.192 | 0.338 | 0.269 | 0.343 | 0.303 | 0.407 | 0.319 | 0.201
5 | C=CCn1c(=O)c2cnc(Nc3ccc(N4CCN(C)CC4)cc3)nc2n1-c1cccc(C(C)(C)O)n1 [AZD1775] + C1CN(CCC1(C(=O)N[C@@H](CCO)C2=CC=C(C=C2)Cl)N)C3=NC=NC4=C3C=CN4 [Capivasertib] (first compound max 3 µM, partner max 3 µM) | 0.671 | 0.983 | 0.594 | 0.709 | 0.854 | – | 0.746 | 0.855 | 0.813 | 0.49 | 0.55 | 0.449 | 0.641 | 0.737 | 0.406 | 0.594 | 0.731 | 0.781 | 0.591 | 0.665
6 | C=CCn1c(=O)c2cnc(Nc3ccc(N4CCN(C)CC4)cc3)nc2n1-c1cccc(C(C)(C)O)n1 [AZD1775] + C[C@@H]1COCCN1C2=NC(=NC(=C2)C3(CC3)[S@](=N)(=O)C)C4=C5C=CNC5=NC=C4 [AZD6738] (first compound max 1 µM, partner max 10 µM) | 0.682 | 1 | 0.799 | 0.657 | 0.821 | 0.801 | 0.843 | 0.914 | 0.787 | 0.464 | 0.49 | 0.331 | 0.675 | 0.665 | 0.453 | 0.513 | 0.822 | 0.695 | 0.702 | 0.852
